In this assay the target is T1, Human orexin receptor type 2 (Homo sapiens, UniProt O43614).
T1 construct: expressed in transfected cells; host or cells: CHO cells (transient expression)
T1 sequence (O43614 1-444): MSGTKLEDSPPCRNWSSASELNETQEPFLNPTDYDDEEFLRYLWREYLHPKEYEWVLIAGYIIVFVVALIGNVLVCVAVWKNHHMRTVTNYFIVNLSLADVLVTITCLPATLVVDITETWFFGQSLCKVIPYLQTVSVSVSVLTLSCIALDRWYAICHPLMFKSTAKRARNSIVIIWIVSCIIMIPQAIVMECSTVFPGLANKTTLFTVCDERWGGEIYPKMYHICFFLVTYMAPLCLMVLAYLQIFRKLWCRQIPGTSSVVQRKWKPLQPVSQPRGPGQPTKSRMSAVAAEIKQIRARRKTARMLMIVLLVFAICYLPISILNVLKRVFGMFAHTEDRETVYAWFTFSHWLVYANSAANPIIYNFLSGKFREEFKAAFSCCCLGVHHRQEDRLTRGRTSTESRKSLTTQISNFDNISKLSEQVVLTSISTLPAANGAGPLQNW
Nature of the assay: Test 2: Evaluation of agonist activity for orexin receptor type 2 (aequorin luminescence, intracellular calcium mobilization in CHO cells). To be noted: relative percentage of luminescence for the luminescence (100%) of Orexin A (100 pM); CHO cells transiently expressing human orexin receptor type 2 and apoaequorin; Orexin A Lot. 671009. Format: cell-based. As to the method: Test 2: Evaluation of Agonist Activity for Orexin Receptor Type 2
Human orexin receptor type 2 and apoaequorin were transiently expressed in CHO cells, and the agonist activity was evaluated based on intracellular calcium mobilization with ligand stimulation. The CHO cells transiently-expressed human orexin receptor type 2 and apoaequorin were seeded on a 384-well plate by 2,000 cells/well, and then incubated for 16-22 hours. After the plate was returned to room temperature, Coelenterazine hcp (final concentration: 1 μM) was added to the plate, and the plate was allowed to stand at room temperature for 2 hours. And then, Orexin A (PEPTIDE INSTITUTE, INC., Lot. 671009) or each test compound was added to the plate, and the luminescence of the cells was measured with FDSS7000 (Hamamatsu Photonics K.K.), wherein Orexin A and each test compound were dissolved in DMSO (final concentration: 0.1%), and diluted with a buffer (Hanks, 20 mM HEPES, 0.1% BSA). The agonist activity of each test compound for orexin receptor type 2 was calculated as relative percentage of luminescence for the luminescence (100%) of Orexin A (100 pM).

`CN(C1CC1)[C@H]1CCN([C@H]2CCCC(F)(F)[C@@H]2NC(=O)N2CCC(C)(c3noc([C@@H]4C[C@@H]4F)n3)CC2)C1` [Example 115, N-[(1R,6S)-6-{(3S)-3-[cyclopropyl(methyl)amino]pyrrolidin-1-yl}-2,2-difluorocyclohexyl]-4-{5-[(1S,2S)-2-fluorocyclopropyl]-1,2,4-oxadiazol-3-yl}-4-methylpiperidine-1-carboxamide]: the “agonist activity (%)” value is 403%.

`CC(C)CN1CC[C@H](O[C@H]2CCCC(F)(F)[C@@H]2NC(=O)N2CCC(C)(c3noc(C4CC4)n3)CC2)C1` [Example 116, 4-(5-cyclopropyl-1,2,4-oxadiazol-3-yl)-N-[(1R,6S)-2,2-difluoro-6-{[(3S)-1-(2-methylpropyl)pyrrolidin-3-yl]oxy}cyclohexyl]-4-methylpiperidine-1-carboxamide]: the “agonist activity (%)” value was 488%.

For the compound `CC(C)N1CCN(C[C@H]2CCCC(F)(F)[C@@H]2NC(=O)N2CCC(C)(c3noc([C@@H]4C[C@@H]4F)n3)CC2)CC1` [Example 117, N-[(1R,6R)-2,2-difluoro-6-{[4-(propan-2-yl)piperazin-1-yl]methyl}cyclohexyl]-4-{5-[(1S,2S)-2-fluorocyclopropyl]-1,2,4-oxadiazol-3-yl}-4-methylpiperidine-1-carboxamide], the “agonist activity (%)” value was determined as 465%.

Take `CC1(c2noc([C@@H]3C[C@@H]3F)n2)CCN(C(=O)N[C@@H]2[C@@H](O[C@H]3CCN(CC4CC4)C3)CCCC2(F)F)CC1` [Example 118, N-[(1R,6S)-6-{[(3S)-1-(cyclopropylmethyl)pyrrolidin-3-yl]oxy}-2,2-difluorocyclohexyl]-4-{5-[(1S,2S)-2-fluorocyclopropyl]-1,2,4-oxadiazol-3-yl}-4-methylpiperidine-1-carboxamide]: the “agonist activity (%)” value is given as 524%.

For `CC(C)(C)CN1CC[C@H](O[C@H]2CCCC(F)(F)[C@@H]2NC(=O)N2CCC(C)(c3noc(C4CC4)n3)CC2)C1` [Example 119, 4-(5-cyclopropyl-1,2,4-oxadiazol-3-yl)-N-[(1R,6S)-6-{[(3S)-1-(2,2-dimethylpropyl)pyrrolidin-3-yl]oxy}-2,2-difluorocyclohexyl]-4-methylpiperidine-1-carboxamide], the “agonist activity (%)” value came out at 378%.

As to `CC(C)(C)CN1CC[C@H](O[C@H]2CCCC(F)(F)[C@@H]2NC(=O)N2CCC(C)(c3noc([C@@H]4C[C@@H]4F)n3)CC2)C1` [Example 120, N-[(1R,6S)-6-{[(3S)-1-(2,2-dimethylpropyl)pyrrolidin-3-yl]oxy}-2,2-difluorocyclohexyl]-4-{5-[(1S,2S)-2-fluorocyclopropyl]-1,2,4-oxadiazol-3-yl}-4-methylpiperidine-1-carboxamide], the “agonist activity (%)” value is 387%.

Regarding `CC1(CN2CC[C@H](O[C@H]3CCCC(F)(F)[C@@H]3NC(=O)N3CCC(C)(c4noc([C@@H]5C[C@@H]5F)n4)CC3)C2)CC1` [Example 121, N-[(1R,6S)-2,2-difluoro-6-({(3S)-1-[(1-methylcyclopropyl)methyl]pyrrolidin-3-yl}oxy)cyclohexyl]-4-{5-[(1S,2S)-2-fluorocyclopropyl]-1,2,4-oxadiazol-3-yl}-4-methylpiperidine-1-carboxamide], the “agonist activity (%)” value amounted to 379%.

As for `CC1(c2noc(C3CC3)n2)CCN(C(=O)N[C@@H]2[C@@H](O[C@H]3CCN(CC4CC4)C3)CCCC2(F)F)CC1` [Example 122, N-[(1R,6S)-6-{[(3S)-1-(cyclopropylmethyl)pyrrolidin-3-yl]oxy}-2,2-difluorocyclohexyl]-4-(5-cyclopropyl-1,2,4-oxadiazol-3-yl)-4-methylpiperidine-1-carboxamide], the “agonist activity (%)” value is reported as 369%.

Take `CC(C)N1CCC(N(C)[C@H]2CCCC(F)(F)[C@@H]2NC(=O)N2CCC(C)(c3noc([C@@H]4C[C@@H]4F)n3)CC2)CC1` [Example 123, N-[(1R,6S)-2,2-difluoro-6-{methyl[1-(propan-2-yl)piperidin-4-yl]amino}cyclohexyl]-4-{5-[(1S,2S)-2-fluorocyclopropyl]-1,2,4-oxadiazol-3-yl}-4-methylpiperidine-1-carboxamide]: the “agonist activity (%)” value is on record as 366%.

`CC1(c2noc([C@@H]3C[C@@H]3F)n2)CCN(C(=O)N[C@@H]2[C@@H](N3CCC(N4CCCC4)CC3)CCCC2(F)F)CC1` [Example 124, N-{(1R,6S)-2,2-difluoro-6-[4-(pyrrolidin-1-yl)piperidin-1-yl]cyclohexyl}-4-{5-[(1S,2S)-2-fluorocyclopropyl]-1,2,4-oxadiazol-3-yl}-4-methylpiperidine-1-carboxamide]: the “agonist activity (%)” value worked out at 391%.

Turning to `CC(C)N1CC2CN([C@H]3CCCC(F)(F)[C@@H]3NC(=O)N3CCC(C)(c4noc([C@@H]5C[C@@H]5F)n4)CC3)CC2C1` (stereo partly drawn) [Example 125, N-{(1R,6S)-2,2-difluoro-6-[5-(propan-2-yl)hexahydropyrrolo[3,4-c]pyrrol-2(1H)-yl]cyclohexyl}-4-{5-[(1S,2S)-2-fluorocyclopropyl]-1,2,4-oxadiazol-3-yl}-4-methylpiperidine-1-carboxamide], the “agonist activity (%)” value worked out at 402%.

Turning to `CC1(CN2CC[C@H](O[C@H]3CCCC(F)(F)[C@@H]3NC(=O)N3CCC(C)(c4noc(C5CC5)n4)CC3)C2)CC1` [Example 126, 4-(5-cyclopropyl-1,2,4-oxadiazol-3-yl)-N-[(1R,6S)-2,2-difluoro-6-({(3S)-1-[(1-methylcyclopropyl)methyl]pyrrolidin-3-yl}oxy)cyclohexyl]-4-methylpiperidine-1-carboxamide], the “agonist activity (%)” value was found to be 394%.

For the compound `CC(C)N1CCC2(CCN([C@H]3CCCC(F)(F)[C@@H]3NC(=O)N3CCC(C)(c4noc([C@@H]5C[C@@H]5F)n4)CC3)CC2)C1` [Example 127, N-{(1R,6S)-2,2-difluoro-6-[2-(propan-2-yl)-2,8-diazaspiro[4.5]decan-8-yl]cyclohexyl}-4-{5-[(1S,2S)-2-fluorocyclopropyl]-1,2,4-oxadiazol-3-yl}-4-methylpiperidine-1-carboxamide], the “agonist activity (%)” value is reported as 367%.

Regarding `CC(C)CN(C)[C@H]1CCN([C@H]2CCCC(F)(F)[C@@H]2NC(=O)N2CCC(C)(c3noc([C@@H]4C[C@@H]4F)n3)CC2)C1` [Example 128, N-[(1R,6S)-2,2-difluoro-6-{(3S)-3-[methyl(2-methylpropyl)amino]pyrrolidin-1-yl}cyclohexyl]-4-{5-[(1S,2S)-2-fluorocyclopropyl]-1,2,4-oxadiazol-3-yl}-4-methylpiperidine-1-carboxamide], the “agonist activity (%)” value is listed as 402%.

Take `CCN(CC)C1CCN([C@H]2CCCC(F)(F)[C@@H]2NC(=O)N2CCC(C)(c3noc([C@@H]4C[C@@H]4F)n3)CC2)CC1` [Example 129, N-{(1R,6S)-6-[4-(diethylamino)piperidin-1-yl]-2,2-difluorocyclohexyl}-4-{5-[(1S,2S)-2-fluorocyclopropyl]-1,2,4-oxadiazol-3-yl}-4-methylpiperidine-1-carboxamide]: the “agonist activity (%)” value worked out at 435%.

On to `Cc1ccc(C2(C)CCN(C(=O)N[C@@H]3[C@@H](O[C@H]4CCN(CC5(C)CC5)C4)CCCC3(F)F)CC2)cc1` [Example 130, N-[(1R,6S)-2,2-difluoro-6-({(3S)-1-[(1-methylcyclopropyl)methyl]pyrrolidin-3-yl}oxy)cyclohexyl]-4-methyl-4-(4-methylphenyl)piperidine-1-carboxamide], for which the “agonist activity (%)” value is recorded as 450%.

On to `CC(C)N(C)C1(C)CCN([C@H]2CCCC(F)(F)[C@@H]2NC(=O)N2CCC(C)(c3noc([C@@H]4C[C@@H]4F)n3)CC2)CC1` [Example 131, N-[(1R,6S)-2,2-difluoro-6-{4-methyl-4-[methyl(propan-2-yl)amino]piperidin-1-yl}cyclohexyl]-4-{5-[(1S,2S)-2-fluorocyclopropyl]-1,2,4-oxadiazol-3-yl}-4-methylpiperidine-1-carboxamide], for which the “agonist activity (%)” value worked out at 461%.

For `CC(C)N1CCN(C(=O)[C@H]2CCCC(F)(F)[C@@H]2NC(=O)N2CCC(C)(c3noc([C@@H]4C[C@@H]4F)n3)CC2)CC1` [Example 132, N-{(1R,6S)-2,2-difluoro-6-[4-(propan-2-yl)piperazine-1-carbonyl]cyclohexyl}-4-{5-[(1S,2S)-2-fluorocyclopropyl]-1,2,4-oxadiazol-3-yl}-4-methylpiperidine-1-carboxamide], the “agonist activity (%)” value worked out at 166%.

As for `CC1(c2noc([C@@H]3C[C@@H]3F)n2)CCN(C(=O)N[C@@H]2[C@@H](O[C@H]3CCN(CC4(F)CC4)C3)CCCC2(F)F)CC1` [Example 133, N-[(1R,6S)-2,2-difluoro-6-({(3S)-1-[(1-fluorocyclopropyl)methyl]pyrrolidin-3-yl}oxy)cyclohexyl]-4-{5-[(1S,2S)-2-fluorocyclopropyl]-1,2,4-oxadiazol-3-yl}-4-methylpiperidine-1-carboxamide], the “agonist activity (%)” value was determined as 506%.

The values above are taken from US12162872B2, “Cycloalkylurea derivative” (Sumitomo Pharma Co., Ltd., priority 2019, dated 2024).
